Results: US8629148B2, “Substituted oxindole-derivatives and the use thereof for the treatment of vasopressin-dependent illnesses” (AbbVie Deutschland GmbH & Co. KG, priority 2007, dated 2014)

Assays:
[1] = target: T1, human vasopressin V1b receptor (Homo sapiens, UniProt P47901); assay: Vasopressin V1b receptor binding assay (3H-AVP displacement, CHO-K1 membranes)
T1 construct: expressed in transfected cells; host or cells: CHO-K1 (cell line hV1b_3H2_CHO), membranes
T1 sequence (P47901 1-424): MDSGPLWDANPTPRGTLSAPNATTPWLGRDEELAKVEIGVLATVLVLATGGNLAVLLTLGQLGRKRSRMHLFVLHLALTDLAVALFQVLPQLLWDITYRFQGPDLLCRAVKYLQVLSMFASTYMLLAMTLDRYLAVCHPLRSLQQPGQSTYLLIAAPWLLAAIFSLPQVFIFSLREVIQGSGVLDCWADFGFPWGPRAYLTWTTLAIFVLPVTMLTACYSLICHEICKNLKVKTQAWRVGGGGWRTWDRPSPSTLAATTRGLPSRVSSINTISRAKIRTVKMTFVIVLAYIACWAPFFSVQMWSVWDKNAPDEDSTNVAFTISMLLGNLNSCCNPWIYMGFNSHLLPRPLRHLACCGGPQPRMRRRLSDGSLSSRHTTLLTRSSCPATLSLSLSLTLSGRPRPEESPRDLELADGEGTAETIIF
Method: 1. Vasopressin V1b Receptor Binding Assay:
The substance concentration was further diluted 1:5 in the assay mixture (2% DMSO in the mixture).
All determinations were carried out as triplicate determinations.

[2] = target: T2, recombinant human oxytocin receptors (Homo sapiens, UniProt P30559); assay: Oxytocin receptor binding assay (3H-oxytocin, HEK-293 cells); settings: selectivity quotient, human OT vs human V1b
T2 construct: expressed in transfected cells; host or cells: HEK-293, transient expression; lysed and homogenized cells
T2 sequence (P30559 1-389): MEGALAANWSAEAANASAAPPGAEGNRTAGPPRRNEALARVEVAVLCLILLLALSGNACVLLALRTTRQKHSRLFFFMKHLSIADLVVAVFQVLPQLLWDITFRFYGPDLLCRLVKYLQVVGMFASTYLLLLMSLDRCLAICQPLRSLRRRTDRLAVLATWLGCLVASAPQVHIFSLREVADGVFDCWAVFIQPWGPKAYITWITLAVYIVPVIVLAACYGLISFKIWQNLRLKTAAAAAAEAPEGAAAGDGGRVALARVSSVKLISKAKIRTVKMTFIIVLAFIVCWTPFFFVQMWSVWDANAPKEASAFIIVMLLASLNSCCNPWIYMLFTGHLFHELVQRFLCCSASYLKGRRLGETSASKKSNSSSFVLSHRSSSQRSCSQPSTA
Method: The residue was taken up in ice-cold lysis buffer (50 mM Tris-HCl, 10% glycerol, pH 7.4 and Roche complete protease inhibitor) and subjected to an osmotic shock at 4° C. for 20 minutes. The lyzed cells were then centrifuged at 750×g at 4° C. for 20 minutes, the residue was taken up in incubation buffer, and aliquots of 10^7 cells/ml were prepared. The aliquots were frozen at −80° C. until used.
On the day of the experiment, the cells were thawed, diluted with incubation buffer and homogenized using a Multipette Combitip (Eppendorf, Hamburg). […] Triplicate determinations were set up. Bound and free radioligand were separated by filtration under vacuum with Whatman GF/B glass fiber filters with the aid of a Skatron cell harvester 7000. The bound radioactivity was determined by liquid scintillation measurement in a Tricarb Beta counter, model 2000 or 2200CA (Packard).

[3] = target: human vasopressin V1a receptor (Homo sapiens, UniProt P37288); assay: Vasopressin V1a receptor binding assay (125I-AVP displacement, CHO-K1 membranes); settings: selectivity quotient, human V1a vs human V1b
human vasopressin V1a receptor, sequence (P37288 whole entry): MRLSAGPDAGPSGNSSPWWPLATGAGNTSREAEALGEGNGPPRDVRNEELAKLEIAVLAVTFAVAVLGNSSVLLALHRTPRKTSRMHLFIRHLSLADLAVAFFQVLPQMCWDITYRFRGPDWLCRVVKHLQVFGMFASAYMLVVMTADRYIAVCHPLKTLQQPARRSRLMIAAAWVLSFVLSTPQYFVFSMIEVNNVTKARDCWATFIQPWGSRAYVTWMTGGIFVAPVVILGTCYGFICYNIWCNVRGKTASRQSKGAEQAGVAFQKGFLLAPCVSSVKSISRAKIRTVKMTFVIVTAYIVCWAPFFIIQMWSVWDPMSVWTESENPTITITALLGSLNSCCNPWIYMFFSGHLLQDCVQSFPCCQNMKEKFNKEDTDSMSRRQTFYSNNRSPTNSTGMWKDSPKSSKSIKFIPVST

SMILES	Ki [1]	Ki(h-OT)/Ki(h-V1b)* [2]	Ki(h-V1a)/Ki(h-V1b)* [3]
CCOc1ncccc1C1(NCc2ccc(N3CCN(C)CC3)cc2)C(=O)N(S(=O)(=O)c2ccc(OC)cc2)c2ccc(F)cc21 (stereo not drawn) [Example 15, 3-(2-Ethoxypyridin-3-yl)-5-fluoro-1-(4-methoxyphenylsulfonyl)-3-[4-(4-methylpiperazin-1-yl)benzylamino]-1,3-dihydroindol-2-one]	1 to 10 nM	+++ (>75)	++ (25-75)
CCOc1ncccc1C1(NCc2ccc(N3CCN(C)CC3)cc2)C(=O)N(S(=O)(=O)c2ccccc2OC)c2ccc(C#N)cc21 (stereo not drawn) [Example 24, 3-(2-Ethoxypyridin-3-yl)-1-(2-methoxyphenylsulfonyl)-3-[4-(4-methylpiperazin-1-yl)-benzylamino]-2-oxo-2,3-dihydro-1H-indole-5-carbonitrile]	1 to 10 nM	+ (10-<25)	+++ (>75)
CCOc1ncccc1C1(Nc2ccc(N3CCN(CC)CC3)cc2)C(=O)N(S(=O)(=O)c2ccc(OC)cc2)c2ccc(C#N)cc21 (stereo not drawn) [Example 57, 3-(2-Ethoxypyridin-3-yl)-3-[4-(4-ethylpiperazin-1-yl)phenylamino]-1-(4-methoxyphenylsulfonyl)-2-oxo-2,3-dihydro-1H-indole-5-carbonitrile]	10 to 100 nM	+++ (>75)	++ (25-75)
CCOc1ncccc1C1(NCc2cccc(N3CCN(C)CC3)c2)C(=O)N(S(=O)(=O)c2ccc(OC)cc2)c2ccc(I)cc21 (stereo not drawn) [Example 40, 3-(2-Ethoxypyridin-3-yl)-5-iodo-1-(4-methoxyphenylsulfonyl)-3-[3-(4-methylpiperazin-1-yl)-benzylamino]-1,3-dihydroindol-2-one]	1 to 10 nM	++ (25-75)	++ (25-75)
CCOc1ncccc1C1(NC(=O)c2ccc(N3CCN(CC)CC3)cc2)C(=O)N(S(=O)(=O)c2ccc(OC)cc2OC)c2ccc(C#N)cc21 (stereo not drawn) [Example 7, N-[5-Cyano-1-(2,4-dimethoxyphenylsulfonyl)-3-(2-ethoxypyridin-3-yl)-2-oxo-2,3-dihydro-1H-indol-3-yl]-4-(4-ethylpiperazin-1-yl)benzamide]	1 to 10 nM	++ (25-75)	+++ (>75)
CCOc1ncccc1C1(NCc2cccc(N3CCN(C)CC3)c2)C(=O)N(S(=O)(=O)c2ccccc2OC)c2ccc(I)cc21 (stereo not drawn) [Example 41, 3-(2-Ethoxypyridin-3-yl)-5-iodo-1-(2-methoxyphenylsulfonyl)-3-[3-(4-methylpiperazin-1-yl)-benzylamino]-1,3-dihydroindol-2-one]	1 to 10 nM	++ (25-75)	++ (25-75)
CCOc1ncccc1C1(Nc2ccc(N3CCN(C)CC3)cc2)C(=O)N(S(=O)(=O)c2ccc(OC)cc2)c2cc(F)c(C#N)cc21 (stereo not drawn) [Example 59, 3-(2-Ethoxypyridin-3-yl)-6-fluoro-1-(4-methoxyphenylsulfonyl)-3-[4-(4-methylpiperazin-1-yl)phenylamino]-2-oxo-2,3-dihydro-1H-indole-5-carbonitrile]	1 to 10 nM	+++ (>75)	++ (25-75)
CCOc1ncccc1C1(NCc2ccc(N3CCN(C)CC3)cc2)C(=O)N(S(=O)(=O)c2ccc(OC)cc2)c2cc(Cl)c(F)cc21 (stereo not drawn) [Example 13, 6-Chloro-3-(2-ethoxypyridin-3-yl)-5-fluoro-1-(4-methoxyphenylsulfonyl)-3-[4-(4-methylpiperazin-1-yl)benzylamino]-1,3-dihydroindol-2-one]	10 to 100 nM	++ (25-75)	+ (10-<25)
CCOc1ncccc1C1(NCc2ccc(N3CCN(CC)CC3)cc2)C(=O)N(S(=O)(=O)c2ccc(OC)cc2)c2ccc(C#N)cc21 (stereo not drawn) [Example 31, 3-(2-Ethoxypyridin-3-yl)-3-[4-(4-ethylpiperazin-1-yl)benzylamino]-1-(4-methoxy-phenylsulfonyl)-2-oxo-2,3-dihydro-1H-indole-5-carbonitrile]	< 1 nM	+++ (>75)	+++ (>75)
COc1ccc(S(=O)(=O)N2C(=O)C(NCc3ccc(N4CCN(C)CC4)cc3)(c3cccnc3OCC(F)(F)F)c3cc(C#N)ccc32)cc1 (stereo not drawn) [Example 77, 1-(4-Methoxyphenylsulfonyl)-3-(2-(2,2,2-trifluoroethoxy)pyridin-3-yl)-3-[4-(4-methylpiperazin-1-yl)benzylamino]-2-oxo-2,3-dihydro-1H-indole-5-carbonitrile]	1 to 10 nM	++ (25-75)	++ (25-75)
CCOc1ncccc1C1(NCc2ccc(N3CCN(C)CC3)cc2)C(=O)N(S(=O)(=O)c2ccc(OC)cc2)c2cc(F)c(C#N)cc21 (stereo not drawn) [Example 33, 3-(2-Ethoxypyridin-3-yl)-6-fluoro-1-(4-methoxyphenylsulfonyl)-3-[4-(4-methylpiperazin-1-yl)benzylamino]-2-oxo-2,3-dihydro-1H-indole-5-carbonitrile]	< 1 nM	+++ (>75)	+++ (>75)
CCOc1ncccc1C1(Nc2ccc(N3CCN(C)CC3)nc2)C(=O)N(S(=O)(=O)c2ccc(OC)cc2)c2ccc(I)cc21 (stereo not drawn) [Example 68, 3-(2-Ethoxypyridin-3-yl)-5-iodo-1-(4-methoxyphenylsulfonyl)-3-[6-(4-methylpiperazin-1-yl)-pyridin-3-ylamino]-1,3-dihydroindol-2-one]	1 to 10 nM	++ (25-75)	+ (10-<25)
CCOc1ncccc1C1(Nc2ccc(N3CCN(C)CC3)cc2)C(=O)N(S(=O)(=O)c2ccc(OC)cc2)c2ccc(I)cc21 (stereo not drawn) [Example 50, 3-(2-Ethoxypyridin-3-yl)-5-iodo-1-(4-methoxyphenylsulfonyl)-3-[4-(4-methylpiperazin-1-yl)-phenylamino]-1,3-dihydroindol-2-one]	1 to 10 nM	+++ (>75)	+ (10-<25)
CCOc1ncccc1C1(OC(=O)c2ccc(N3CCN(C)CC3)cc2)C(=O)N(S(=O)(=O)c2ccc(OC)cc2)c2ccc(C#N)cc21 (stereo not drawn) [Example 2, 5-Cyano-3-(2-ethoxypyridin-3-yl)-1-(4-methoxyphenylsulfonyl)-2-oxo-2,3-dihydro-1H-indol-3-yl-4-(4-methylpiperazin-1-yl)benzoate]	1 to 10 nM	++ (25-75)	+++ (>75)
CCN1CCN(c2ccc(NC3(c4cccnc4OCC(F)F)C(=O)N(S(=O)(=O)c4ccc(OC)cc4)c4ccc(C#N)cc43)cc2)CC1 (stereo not drawn) [Example 79, 3-[4-(4-Ethylpiperazin-1-yl)phenylamino]-1-(4-methoxyphenylsulfonyl)-3-(2-(2,2-difluoroethoxy)pyridin-3-yl)-2-oxo-2,3-dihydro-1H-indole-5-carbonitrile]	10 to 100 nM	+++ (>75)	++ (25-75)
CCOc1ncccc1C1(NC(=O)c2ccc(N3CCN(CC)CC3)cc2)C(=O)N(S(=O)(=O)c2ccc(OC)cc2)c2ccc(C#N)cc21 (stereo not drawn) [Example 5, N-[5-Cyano-3-(2-ethoxypyridin-3-yl)-1-(4-methoxyphenylsulfonyl)-2-oxo-2,3-dihydro-1H-indol-3-yl]-4-(4-ethylpiperazin-1-yl)benzamide]	1 to 10 nM	+++ (>75)	+++ (>75)
